Experiment [1] deals with Interleukin-1 receptor-associated kinase 4 (Homo sapiens) (UniProt Q9NWZ3). Description: Inhibition of wild-type human partial length IRAK4 (M1 to S460 residues) expressed in mammalian expression system at 10 uM by Kinomescan method relative to control.
The target of experiment [2] is Tyrosine-protein kinase ABL1 (Homo sapiens) (UniProt P00519). Description: Inhibition of wild-type human non-phosphorylated ABL1 (S229 to K512 residues) expressed in mammalian expression system at 10 uM by Kinomescan method relative to control.
Experiment [3] concerns the target Serine/threonine-protein kinase PAK 6 (Homo sapiens) (UniProt Q9NQU5). Description: Inhibition of wild-type human partial length PAK6 (N298 to C681 residues) expressed in bacterial expression system at 10 uM by Kinomescan method relative to control.
Experiment [4] deals with 1-phosphatidylinositol 3-phosphate 5-kinase (Homo sapiens) (UniProt Q9Y2I7). Description: Inhibition of wild-type human partial length PIKFYVE (F1512 to C2098 residues) expressed in mammalian expression system at 10 uM by Kinomescan method relative to control.
Experiment [5] has as its target Phosphatidylinositol 4-phosphate 5-kinase type-1 alpha (Homo sapiens) (UniProt Q99755). Description: Inhibition of wild-type human full length PIP5K1A (M1 to H562 residues) expressed in bacterial expression system at 10 uM by Kinomescan method relative to control.
Experiment [6] deals with Cyclin-dependent kinase 8 (Homo sapiens) (UniProt P49336). Description: Inhibition of wild-type human partial length CDK8 (M1 to T360 residues) expressed in bacterial expression system at 10 uM by Kinomescan method relative to control.
Experiment [7] addresses MAP kinase-interacting serine/threonine-protein kinase 2 (Homo sapiens) (UniProt Q9HBH9). Description: Inhibition of wild-type human partial length MKNK2 (G63 to S388 residues) expressed in mammalian expression system at 10 uM by Kinomescan method relative to control.
Experiment [8] concerns the target Mitogen-activated protein kinase kinase kinase 20 (Homo sapiens) (UniProt Q9NYL2). Description: Inhibition of wild-type human partial length ZAK (M1 to L331 residues) expressed in bacterial expression system at 10 uM by Kinomescan method relative to control.
The target in experiment [9] is Activated CDC42 kinase 1 (Homo sapiens) (UniProt Q07912). Description: Inhibition of wild-type human partial length TNK2 (S159 to D474 residues) expressed in bacterial expression system at 10 uM by Kinomescan method relative to control.
Experiment [10] concerns the target Tyrosine-protein kinase CSK (Homo sapiens) (UniProt P41240). Description: Inhibition of wild-type human full length CSK (M1 to L450 residues) expressed in bacterial expression system at 10 uM by Kinomescan method relative to control.
Experiment [11] deals with cAMP-dependent protein kinase catalytic subunit PRKX (Homo sapiens) (UniProt P51817). Description: Inhibition of wild-type human partial length PRKX (M1 to F358 residues) expressed in bacterial expression system at 10 uM by Kinomescan method relative to control.
Experiment [12] has as its target Non-receptor tyrosine-protein kinase TNK1 (Homo sapiens) (UniProt Q13470). Description: Inhibition of wild-type human full length TNK1 (M1 to P661 residues) expressed in bacterial expression system at 10 uM by Kinomescan method relative to control.
In experiment [13] the target is MAP kinase-interacting serine/threonine-protein kinase 1 (Homo sapiens) (UniProt Q9BUB5). Description: Inhibition of wild-type human full length MKNK1 (M1 to L424 residues) expressed in mammalian expression system at 10 uM by Kinomescan method relative to control.
In experiment [14] the test system is Tyrosine-protein kinase ABL1 (Homo sapiens), P00519 [E255K]. Description: Inhibition of human phosphorylated ABL1 E255K mutant (S229 to K512 residues) expressed in mammalian expression system at 10 uM by Kinomescan method relative to control.
Experiment [15] addresses Tyrosine-protein kinase JAK3 (Homo sapiens) (UniProt P52333). Description: Inhibition of wild-type human partial length JAK3 JH1 catalytic domain (I781 to S1124 residues) expressed in mammalian expression system at 1 uM by Kinomescan method relative to control.
In experiment [16] the target is Mast/stem cell growth factor receptor Kit (Homo sapiens) (UniProt P10721). Description: Inhibition of wild-type human partial length autoinhibited KIT (Y545 to D952 residues) expressed in mammalian expression system at 1 uM by Kinomescan method relative to control.
Experiment [17] deals with Fibroblast growth factor receptor 2 (Homo sapiens) (UniProt P21802). Description: Inhibition of wild-type human partial length FGFR2 (D457 to E769 residues) expressed in bacterial expression system at 1 uM by Kinomescan method relative to control.
Experiment [18] deals with Bone morphogenetic protein receptor type-1B (Homo sapiens) (UniProt O00238). Description: Inhibition of wild-type human partial length BMPR1B (D178 to L502 residues) expressed in mammalian expression system at 1 uM by Kinomescan method relative to control.
Experiment [19] deals with Serine/threonine-protein kinase PLK1 (Homo sapiens) (UniProt P53350). Description: Inhibition of wild-type human partial length PLK1 (A33 to F325 residues) expressed in mammalian expression system at 1 uM by Kinomescan method relative to control.
Experiment [20] concerns the target Serine/threonine-protein kinase DCLK3 (Homo sapiens) (UniProt Q9C098). Description: Inhibition of wild-type human partial length DCAMKL3 (E140 to V628 residues) expressed in bacterial expression system at 1 uM by Kinomescan method relative to control.
Experiment [21] has as its target Myosin light chain kinase (Homo sapiens) (UniProt Q32MK0). Description: Inhibition of wild-type human partial length MLCK (D488 to K800 residues) expressed in bacterial expression system at 1 uM by Kinomescan method relative to control.
Experiment [22] deals with Fibroblast growth factor receptor 1 (Homo sapiens) (UniProt P11362). Description: Inhibition of wild-type human partial length FGFR1 (P357 to V669 residues) expressed in bacterial expression system at 1 uM by Kinomescan method relative to control.
The target in experiment [23] is ALK tyrosine kinase receptor (Homo sapiens) (UniProt Q9UM73). Description: Inhibition of wild-type human partial length ALK (I1088 to E1409 residues) expressed in mammalian expression system at 1 uM by Kinomescan method relative to control.
Experiment [24] addresses Non-receptor tyrosine-protein kinase TYK2 (Homo sapiens) (UniProt P29597). Description: Inhibition of wild-type human partial length TYK2 JH2 pseudokinase domain (G556 to D888 residues) expressed in mammalian expression system at 1 uM by Kinomescan method relative to control.
Experiment [25] relates to Tyrosine-protein kinase ABL1 (Homo sapiens), P00519 [H396P]. Description: Inhibition of human phosphorylated ABL1 H396P mutant (S229 to K512 residues) expressed in mammalian expression system at 1 uM by Kinomescan method relative to control.
Experiment [26] has as its target Serine/threonine-protein kinase Nek5 (Homo sapiens) (UniProt Q6P3R8). Description: Inhibition of wild-type human partial length NEK5 (M1 to M279 residues) expressed in bacterial expression system at 1 uM by Kinomescan method relative to control.

Interleukin-1 receptor-associated kinase 4 (Homo sapiens), sequence (Q9NWZ3 whole entry, the tested form may be a part): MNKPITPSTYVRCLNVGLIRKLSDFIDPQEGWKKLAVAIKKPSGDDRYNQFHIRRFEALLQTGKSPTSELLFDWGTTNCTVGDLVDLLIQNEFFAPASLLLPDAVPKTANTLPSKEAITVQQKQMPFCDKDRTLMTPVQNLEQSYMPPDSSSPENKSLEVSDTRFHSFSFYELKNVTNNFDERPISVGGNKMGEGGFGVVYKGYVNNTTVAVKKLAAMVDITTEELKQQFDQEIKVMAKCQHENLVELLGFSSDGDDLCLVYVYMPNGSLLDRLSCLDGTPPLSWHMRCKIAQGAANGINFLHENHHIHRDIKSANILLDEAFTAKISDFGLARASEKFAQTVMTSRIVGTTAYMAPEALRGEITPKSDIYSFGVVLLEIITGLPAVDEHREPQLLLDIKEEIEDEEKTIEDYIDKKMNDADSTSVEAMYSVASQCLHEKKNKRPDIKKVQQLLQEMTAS
cAMP-dependent protein kinase catalytic subunit PRKX (Homo sapiens), sequence (P51817 whole entry, the tested form may be a part): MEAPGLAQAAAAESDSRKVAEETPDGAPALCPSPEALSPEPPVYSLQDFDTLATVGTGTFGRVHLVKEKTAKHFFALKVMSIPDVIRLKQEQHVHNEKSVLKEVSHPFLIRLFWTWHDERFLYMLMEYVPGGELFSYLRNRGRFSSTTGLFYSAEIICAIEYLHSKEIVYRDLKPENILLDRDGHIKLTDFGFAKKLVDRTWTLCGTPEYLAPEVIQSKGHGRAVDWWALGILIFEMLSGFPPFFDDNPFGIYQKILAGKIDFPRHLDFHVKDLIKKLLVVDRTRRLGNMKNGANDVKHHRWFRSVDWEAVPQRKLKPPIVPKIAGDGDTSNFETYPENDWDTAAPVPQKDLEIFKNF
Tyrosine-protein kinase CSK (Homo sapiens), sequence (P41240 2-450 limits assumed): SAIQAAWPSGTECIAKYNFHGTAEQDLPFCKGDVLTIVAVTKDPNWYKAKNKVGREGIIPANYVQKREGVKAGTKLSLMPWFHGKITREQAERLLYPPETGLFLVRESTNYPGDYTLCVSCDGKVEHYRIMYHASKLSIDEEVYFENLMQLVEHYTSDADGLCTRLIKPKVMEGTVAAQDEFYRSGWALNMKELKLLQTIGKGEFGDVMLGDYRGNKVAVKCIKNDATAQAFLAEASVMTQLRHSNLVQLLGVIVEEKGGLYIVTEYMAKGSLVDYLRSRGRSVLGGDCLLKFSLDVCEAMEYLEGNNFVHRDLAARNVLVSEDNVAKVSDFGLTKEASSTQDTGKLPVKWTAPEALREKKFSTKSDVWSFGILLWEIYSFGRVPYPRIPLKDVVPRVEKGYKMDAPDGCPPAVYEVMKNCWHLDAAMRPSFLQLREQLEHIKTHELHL
Mitogen-activated protein kinase kinase kinase 20 (Homo sapiens), sequence (Q9NYL2 2-800 limits assumed): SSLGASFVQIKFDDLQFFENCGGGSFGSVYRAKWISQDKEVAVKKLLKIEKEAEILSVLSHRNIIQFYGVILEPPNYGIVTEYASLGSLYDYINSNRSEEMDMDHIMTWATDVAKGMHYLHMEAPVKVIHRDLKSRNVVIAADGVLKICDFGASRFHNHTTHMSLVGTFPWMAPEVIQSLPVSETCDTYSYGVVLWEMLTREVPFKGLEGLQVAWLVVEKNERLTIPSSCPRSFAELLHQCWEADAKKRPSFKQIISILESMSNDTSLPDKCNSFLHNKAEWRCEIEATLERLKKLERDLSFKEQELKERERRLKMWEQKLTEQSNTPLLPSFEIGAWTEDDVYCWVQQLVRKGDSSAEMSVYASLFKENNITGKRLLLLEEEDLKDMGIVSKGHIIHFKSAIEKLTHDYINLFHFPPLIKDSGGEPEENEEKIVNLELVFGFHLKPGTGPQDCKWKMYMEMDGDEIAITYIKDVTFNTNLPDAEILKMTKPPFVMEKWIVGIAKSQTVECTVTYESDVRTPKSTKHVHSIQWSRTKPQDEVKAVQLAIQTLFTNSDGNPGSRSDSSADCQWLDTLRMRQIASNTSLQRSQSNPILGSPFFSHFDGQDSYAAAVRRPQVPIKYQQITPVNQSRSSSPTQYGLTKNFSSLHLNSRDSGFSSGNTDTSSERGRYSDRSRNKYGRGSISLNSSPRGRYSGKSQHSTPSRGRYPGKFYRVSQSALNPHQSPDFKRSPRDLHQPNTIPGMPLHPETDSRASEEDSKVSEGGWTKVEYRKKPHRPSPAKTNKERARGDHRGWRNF
Mast/stem cell growth factor receptor Kit (Homo sapiens), sequence (P10721 whole entry, the tested form may be a part): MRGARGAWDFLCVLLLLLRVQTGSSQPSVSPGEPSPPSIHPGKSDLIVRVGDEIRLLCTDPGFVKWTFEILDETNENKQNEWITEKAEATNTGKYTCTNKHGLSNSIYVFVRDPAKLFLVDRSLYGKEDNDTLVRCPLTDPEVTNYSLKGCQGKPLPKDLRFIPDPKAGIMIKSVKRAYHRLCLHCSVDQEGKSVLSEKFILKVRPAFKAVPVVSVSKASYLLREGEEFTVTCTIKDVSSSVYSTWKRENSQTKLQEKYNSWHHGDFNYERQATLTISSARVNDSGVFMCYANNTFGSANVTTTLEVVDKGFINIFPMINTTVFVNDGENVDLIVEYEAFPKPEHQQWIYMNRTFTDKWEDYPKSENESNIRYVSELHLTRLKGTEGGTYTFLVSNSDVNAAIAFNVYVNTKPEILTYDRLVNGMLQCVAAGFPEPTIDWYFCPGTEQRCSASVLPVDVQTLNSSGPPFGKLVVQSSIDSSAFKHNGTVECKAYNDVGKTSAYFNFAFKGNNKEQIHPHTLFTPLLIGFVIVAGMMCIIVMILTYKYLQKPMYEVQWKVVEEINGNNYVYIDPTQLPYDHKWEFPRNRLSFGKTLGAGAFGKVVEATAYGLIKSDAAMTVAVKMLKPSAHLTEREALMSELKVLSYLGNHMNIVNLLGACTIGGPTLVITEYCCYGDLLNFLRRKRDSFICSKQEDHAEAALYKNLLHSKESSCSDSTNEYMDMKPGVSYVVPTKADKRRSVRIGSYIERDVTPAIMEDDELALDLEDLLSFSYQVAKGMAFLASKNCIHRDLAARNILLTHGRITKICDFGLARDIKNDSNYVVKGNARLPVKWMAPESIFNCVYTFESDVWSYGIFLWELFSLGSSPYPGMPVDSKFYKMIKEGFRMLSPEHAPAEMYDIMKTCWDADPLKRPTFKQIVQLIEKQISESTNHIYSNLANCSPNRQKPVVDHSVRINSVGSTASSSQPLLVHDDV
Tyrosine-protein kinase JAK3 (Homo sapiens), sequence (P52333 whole entry, the tested form may be a part): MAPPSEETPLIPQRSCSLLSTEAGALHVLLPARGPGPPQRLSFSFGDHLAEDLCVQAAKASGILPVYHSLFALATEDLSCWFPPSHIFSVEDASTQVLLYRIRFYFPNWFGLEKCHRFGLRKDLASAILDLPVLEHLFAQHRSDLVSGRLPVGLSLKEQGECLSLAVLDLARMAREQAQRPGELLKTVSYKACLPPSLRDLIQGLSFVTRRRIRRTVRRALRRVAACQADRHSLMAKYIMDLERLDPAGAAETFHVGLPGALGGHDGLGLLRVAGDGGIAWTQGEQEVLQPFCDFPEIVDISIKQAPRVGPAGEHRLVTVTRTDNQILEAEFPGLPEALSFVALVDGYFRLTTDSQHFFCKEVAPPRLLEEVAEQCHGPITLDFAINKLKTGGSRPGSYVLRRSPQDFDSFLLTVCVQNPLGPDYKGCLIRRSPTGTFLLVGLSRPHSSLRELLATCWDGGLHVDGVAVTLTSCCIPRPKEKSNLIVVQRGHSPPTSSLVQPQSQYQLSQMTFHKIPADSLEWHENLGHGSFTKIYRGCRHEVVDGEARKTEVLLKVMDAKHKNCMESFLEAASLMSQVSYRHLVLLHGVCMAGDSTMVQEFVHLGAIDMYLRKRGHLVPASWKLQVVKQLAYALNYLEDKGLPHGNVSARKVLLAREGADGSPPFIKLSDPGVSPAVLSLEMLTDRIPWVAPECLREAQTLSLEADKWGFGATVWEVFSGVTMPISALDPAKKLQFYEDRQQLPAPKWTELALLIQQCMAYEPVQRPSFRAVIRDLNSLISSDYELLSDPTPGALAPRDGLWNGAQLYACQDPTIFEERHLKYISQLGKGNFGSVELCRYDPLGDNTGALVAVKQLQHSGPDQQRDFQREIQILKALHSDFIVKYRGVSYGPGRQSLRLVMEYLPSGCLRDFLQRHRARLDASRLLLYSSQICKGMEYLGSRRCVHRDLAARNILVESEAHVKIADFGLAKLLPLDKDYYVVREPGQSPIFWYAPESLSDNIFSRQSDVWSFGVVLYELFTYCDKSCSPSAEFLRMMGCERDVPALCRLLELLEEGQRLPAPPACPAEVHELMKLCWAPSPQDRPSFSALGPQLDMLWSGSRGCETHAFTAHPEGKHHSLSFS
Fibroblast growth factor receptor 2 (Homo sapiens), sequence (P21802 22-821 limits assumed): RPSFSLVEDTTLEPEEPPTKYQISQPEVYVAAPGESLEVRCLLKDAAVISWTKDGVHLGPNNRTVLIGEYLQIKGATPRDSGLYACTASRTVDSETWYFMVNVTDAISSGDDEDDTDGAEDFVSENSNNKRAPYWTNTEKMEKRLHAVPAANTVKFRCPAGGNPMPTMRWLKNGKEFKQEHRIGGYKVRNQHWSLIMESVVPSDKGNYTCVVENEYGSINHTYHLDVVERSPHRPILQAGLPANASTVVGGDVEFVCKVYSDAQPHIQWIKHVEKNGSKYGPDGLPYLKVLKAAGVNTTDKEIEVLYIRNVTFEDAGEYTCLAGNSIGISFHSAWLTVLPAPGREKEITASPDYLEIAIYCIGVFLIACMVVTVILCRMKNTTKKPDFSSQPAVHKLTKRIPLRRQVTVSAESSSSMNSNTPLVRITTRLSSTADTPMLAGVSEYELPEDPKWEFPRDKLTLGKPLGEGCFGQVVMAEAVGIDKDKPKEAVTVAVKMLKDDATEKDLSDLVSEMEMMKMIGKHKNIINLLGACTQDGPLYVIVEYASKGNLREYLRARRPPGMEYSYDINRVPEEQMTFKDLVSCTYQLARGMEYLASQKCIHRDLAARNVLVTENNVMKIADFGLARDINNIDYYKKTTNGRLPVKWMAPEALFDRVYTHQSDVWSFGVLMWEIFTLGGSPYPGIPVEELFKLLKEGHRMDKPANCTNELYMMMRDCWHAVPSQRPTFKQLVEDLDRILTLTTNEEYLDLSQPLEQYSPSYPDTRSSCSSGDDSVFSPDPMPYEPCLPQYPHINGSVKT

Take `O=C(Nc1cccc([C@H]2CCCN(c3ncnc4[nH]ccc34)C2)c1)Nc1ccccc1N1CCCC1`: the inhibition is 85% in experiment [1]; 25% in experiment [2]; 85% in experiment [3]; 77% in experiment [4]; 5.1% in experiment [5]; 53% in experiment [6]. Also, the inhibition in [7] came to 34%; in experiment [8], 100%; in [9], 100%; in experiment [10], 83%; in experiment [11], 96%; in experiment [12], 65%. The values for the inhibition in experiment [13] and in experiment [14] were 55% and 35%, respectively.
For the compound `O=C(Nc1cccc([C@@H]2CN(c3ncnc4[nH]ccc34)CCN2CCO)c1)Nc1c(F)cccc1N1CCCC1`, the inhibition in [15] was 4.3%; in experiment [16], 100%; in [17] it was 54%; in experiment [18] it was 63%; in experiment [19] it was 86%; in experiment [20], 85%. The inhibition in [21] came to 100%; in [22], 46%; in experiment [23], 98%; in experiment [24], 71%; in [25], 71%; in [26], 100%.

Source of the values: ChEMBL document CHEMBL4387741, “Optimization of novel reversible Bruton's tyrosine kinase inhibitors identified using Tethering-fragment-based screens” (Bioorg Med Chem, 2019).
